# According to patent US11485740B2, “Inhibitors of TRPC6” (Boehringer Ingelheim International GmbH, priority 2018, dated 2022):
# Molecular target: T1, human TRPC6 (Homo sapiens, UniProt Q9Y210)
# T1 construct: expressed in transfected cells
# T1 sequence (Q9Y210 1-931): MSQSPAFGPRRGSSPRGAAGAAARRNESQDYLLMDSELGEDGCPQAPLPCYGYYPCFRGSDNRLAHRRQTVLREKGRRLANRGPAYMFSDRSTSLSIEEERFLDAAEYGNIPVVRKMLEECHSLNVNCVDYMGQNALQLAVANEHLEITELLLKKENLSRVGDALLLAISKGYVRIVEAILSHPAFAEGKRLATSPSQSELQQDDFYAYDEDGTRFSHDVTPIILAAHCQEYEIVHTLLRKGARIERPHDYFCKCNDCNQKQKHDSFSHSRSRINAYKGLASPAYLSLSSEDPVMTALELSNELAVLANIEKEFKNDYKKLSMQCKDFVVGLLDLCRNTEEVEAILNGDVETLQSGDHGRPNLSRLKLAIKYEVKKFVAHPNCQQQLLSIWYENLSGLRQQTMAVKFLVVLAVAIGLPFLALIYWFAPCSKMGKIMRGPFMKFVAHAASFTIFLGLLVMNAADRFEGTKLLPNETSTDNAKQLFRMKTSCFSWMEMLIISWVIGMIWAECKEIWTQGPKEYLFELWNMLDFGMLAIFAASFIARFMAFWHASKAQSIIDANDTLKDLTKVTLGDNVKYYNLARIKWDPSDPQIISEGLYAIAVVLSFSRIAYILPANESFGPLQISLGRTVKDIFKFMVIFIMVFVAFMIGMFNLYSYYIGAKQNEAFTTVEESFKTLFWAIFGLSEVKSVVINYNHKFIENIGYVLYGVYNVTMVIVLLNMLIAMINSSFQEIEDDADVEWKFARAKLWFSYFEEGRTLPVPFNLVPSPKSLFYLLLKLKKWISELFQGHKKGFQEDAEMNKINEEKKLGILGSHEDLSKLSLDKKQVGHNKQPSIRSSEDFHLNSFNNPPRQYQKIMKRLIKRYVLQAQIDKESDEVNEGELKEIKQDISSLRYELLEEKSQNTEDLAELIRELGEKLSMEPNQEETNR
# Assay: High throughput screening assay: Fluo4/AM calcium fluorescence in HEK293/TREx cells expressing human TRPC6, agonist GSK1702934A (single concentration 10 μM and IC50 curves)
# Assay type: cell-based
# Details: antagonist effect against human TRPC6, 7 concentrations 20 μM to 0.027 μM, triplicate
# How it was run: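 HEK293/TREx cells stably carrying tetracycline-induced (1 μg/ml) human TRPC6, loaded with Fluo4/AM (0.5 μM, 60 min, RT), pretreated 2 min with compound (10 μM final in screen), then stimulated with GSK1702934A in high-Ca2+ Ringer's (20 mM Ca2+ final). Fluorescence ratio over ~3 min normalized to no-compound and control-blocker wells; IC50 from triplicate curves.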
row,Compound,IC50 [nM]
1,"COc1cc(C(=O)N2CCC(c3ccc(N)nn3)CC2)ccc1-c1ccc(O[C@H](C)C2CC2)nc1 [Compound 81, [4-(6-Amino-pyridazin-3-yl)-piperidin-1-yl]-{4-[6-((R)-1-cyclopropyl-ethoxy)-pyridin-3-yl]-3-methoxy-phenyl}-methanone]",220
2,"CCOc1ccc(-c2cnc(C(=O)N3CCC(c4ccc(N)nn4)CC3)cc2OC)cc1 [Compound 37, [4-(6-Amino-pyridazin-3-yl)-piperidin-1-yl]-[5-(4-ethoxy-phenyl)-4-methoxy-pyridin-2-yl]-methanone]",320
3,"COc1cc(C(=O)N2CCC(c3nnc(N)cc3OC)CC2)ncc1-c1ccc(C(F)(F)F)nc1 [Compound 86, [4-(6-Amino-4-methoxy-pyridazin-3-yl)-piperidin-1-yl]-(4-methoxy-6′-trifluoromethyl-[3,3′]bipyridinyl-6-yl)-methanone]",660
4,COc1cc(C(=O)N2CCC(c3ccc(N)nn3)CC2)ncc1-c1ccc(C(F)(F)F)c(OC)c1 [Compound 25],340
5,"COc1cc(C(=O)N2CCC(c3ccc(N)nn3)CC2)ncc1-c1ccc(OC(C)C)cc1 [Compound 30, [4-(6-Amino-pyridazin-3-yl)-piperidin-1-yl]-[5-(4-isopropoxy-phenyl)-4-methoxy-pyridin-2-yl]-methanone]",340
6,"COc1cc(C(=O)N2CCC(c3ccc(N)nn3)CC2)ccc1-c1ccccc1 [Compound 60, [4-(6-Amino-pyridazin-3-yl)-piperidin-1-yl]-(2-methoxy-biphenyl-4-yl)-methanone]",930
7,"COc1cc(C(=O)N2CCN(c3cnc(N)cc3OC)CC2)ncc1-c1ccc(F)cc1 [Compound 104, [4-(6-Amino-4-methoxy-pyridin-3-yl)-piperazin-1-yl]-[5-(4-fluoro-phenyl)-4-methoxy-pyridin-2-yl]-methanone]",27
8,"COC[C@H]1CN(c2cnc(N)cc2OC)CCN1C(=O)c1cc(OC)c(-c2ccc(C(F)(F)F)cc2)cn1 [Compound 99, [(R)-4-(6-Amino-4-methoxy-pyridin-3-yl)-2-methoxymethyl-piperazin-1-yl]-[4-methoxy-5-(4-trifluoromethyl-phenyl)-pyridin-2-yl]-methanone]",300
9,"COc1cc(C(=O)N2CCN(c3cnc(N)cc3OC)C[C@@H]2CO)ncc1-c1ccccc1 [Compound 96, [(R)-4-(6-Amino-4-methoxy-pyridin-3-yl)-2-hydroxymethyl-piperazin-1-yl]-(4-methoxy-5-phenyl-pyridin-2-yl)-methanone]",320
10,"COc1cc(C(=O)N2CCC(c3ccc(N)nn3)CC2)ccc1-c1ccc(C(F)(F)F)cc1 [Compound 55, [4-(6-Amino-pyridazin-3-yl)-piperidin-1-yl]-(2-methoxy-4′-trifluoromethyl-biphenyl-4-yl)-methanone]",430
11,"COc1cc(C(=O)N2CCC(c3ccc(N)nn3)CC2)ncc1-c1ccc(F)c(F)c1 [Compound 33, [4-(6-Amino-pyridazin-3-yl)-piperidin-1-yl]-[5-(3,4-difluoro-phenyl)-4-methoxy-pyridin-2-yl]-methanone]",62
12,"COc1cc(C(=O)N2CCC(c3ccc(N)nn3)CC2)ncc1-c1ccc(C(F)(F)F)cc1Cl [Compound 24, [4-(6-Amino-pyridazin-3-yl)-piperidin-1-yl]-[5-(2-chloro-4-trifluoromethyl-phenyl)-4-methoxy-pyridin-2-yl]-methanone]",420
13,"CCOc1ccc(-c2cnc(C(=O)N3CCC(c4ccc(N)nn4)CC3)cc2OC)cn1 [Compound 45, [4-(6-Amino-pyridazin-3-yl)-piperidin-1-yl]-(6′-ethoxy-4-methoxy-[3,3′]bipyridinyl-6-yl)-methanone]",440
14,"C[C@@H]1CN(C(=O)c2ccc(-c3ccc(C(F)(F)F)cc3)cc2)CCN1c1ccc(N)nc1 [Compound 113, [(R)-4-(6-Amino-pyridin-3-yl)-3-methyl-piperazin-1-yl]-(4′-trifluoromethyl-biphenyl-4-yl)-methanone]",2800
15,"COc1cccc(-c2ccc(C(=O)N3CCC(c4ccc(N)nn4)CC3)cc2)c1 [Compound 9, [4-(6-Amino-pyridazin-3-yl)-piperidin-1-yl]-(3′-methoxy-biphenyl-4-yl)-methanone]",5400
16,"Nc1ccc(C2CCN(C(=O)c3ccc4c(c3)oc3ccccc34)CC2)nn1 [Compound 11, [4-(6-Amino-pyridazin-3-yl)-piperidin-1-yl]-dibenzofuran-3-yl-methanone]",2000
17,"CC(C)Cc1ccc(-c2ccc(C(=O)N3CCC(c4ccc(N)nn4)CC3)cc2)cc1 [Compound 83, [4-(6-Amino-pyridazin-3-yl)-piperidin-1-yl]-(4′-isobutyl-biphenyl-4-yl)-methanone]",8700
18,"COc1cc(C(=O)N2CCN(c3ccc(N)nc3)[C@H](C)C2)ccc1-c1ccc(C(F)(F)F)cc1 [Compound 114, [(R)-4-(6-Amino-pyridin-3-yl)-3-methyl-piperazin-1-yl]-(2-methoxy-4′-trifluoromethyl-biphenyl-4-yl)-methanone]",67
19,"COc1cc(C(=O)N2CCC(c3ccc(N)nn3)CC2)ncc1-c1cnc(OC(C)C)nc1 [Compound 53, [4-(6-Amino-pyridazin-3-yl)-piperidin-1-yl]-[5-(2-isopropoxy-pyrimidin-5-yl)-4-methoxy-pyridin-2-yl]-methanone]",3600
20,"COc1cc(C(=O)N2CCC(c3ccc(N)nn3)CC2)ncc1-c1ccc(OC2CC2)nc1 [Compound 112, [4-(6-Amino-pyridazin-3-yl)-piperidin-1-yl]-(6′-cyclopropoxy-4-methoxy-[3,3′]bipyridinyl-6-yl)-methanone]",1400
21,"COc1cc(C(=O)N2CCC(c3ccc(N)nn3)CC2)cnc1-c1ccc(C(F)(F)F)cc1 [Compound 65, [4-(6-Amino-pyridazin-3-yl)-piperidin-1-yl]-[5-methoxy-6-(4-trifluoromethyl-phenyl)-pyridin-3-yl]-methanone]",860
22,"Nc1ccc(C2CCN(C(=O)c3ccc(-c4cccc(F)c4)cc3)CC2)nn1 [Compound 8, [4-(6-Amino-pyridazin-3-yl)-piperidin-1-yl]-(3′-fluoro-biphenyl-4-yl)-methanone]",6700
23,COc1cc(-c2cnc(C(=O)N3CCC(c4ccc(N)nn4)CC3)cc2OC)ccc1OC(F)(F)F [Compound 13],88
24,"COc1cc(C(=O)N2CCN(c3ccc(N)nc3)C[C@@H]2CO)ncc1-c1ccc(F)cc1 [Compound 90, [(R)-4-(6-Amino-pyridin-3-yl)-2-hydroxymethyl-piperazin-1-yl]-[5-(4-fluoro-phenyl)-4-methoxy-pyridin-2-yl]-methanone]",370
25,"COc1cc(C(=O)N2CCN(c3cnc(N)cc3OC)C[C@H]2CO)ncc1-c1ccccc1 [Compound 89, [(S)-4-(6-Amino-4-methoxy-pyridin-3-yl)-2-hydroxymethyl-piperazin-1-yl]-(4-methoxy-5-phenyl-pyridin-2-yl)-methanone]",540
26,"COc1cc(C(=O)N2CCC(c3nnc(N)cc3OC)CC2)ncc1-c1ccc(C(F)(F)F)cc1 [Compound 85, [4-(6-Amino-4-methoxy-pyridazin-3-yl)-piperidin-1-yl]-[4-methoxy-5-(4-trifluoromethyl-phenyl)-pyridin-2-yl]-methanone]",350
27,"COc1cc(C(=O)N2CCN(c3ccc(N)nc3)CC2)ncc1-c1ccccc1 [Compound 68, 5-[4-(4-Methoxy-5-phenylpyridine-2-carbonyl)piperazin-1-yl]pyridin-2-amine]",39
28,"COc1cc(C(=O)N2CCC(c3ccc(N)nn3)CC2)ccc1-c1ccnc(C(F)(F)F)c1 [Compound 61, [4-(6-Amino-pyridazin-3-yl)-piperidin-1-yl]-[3-methoxy-4-(2-trifluoromethyl-pyridin-4-yl)-phenyl]-methanone]",4100
29,"COc1cc(C(=O)N2CCC(c3ccc(N)nn3)CC2)ccc1-c1ccc(OCC2(CF)CC2)nc1 [Compound 80, [4-(6-Amino-pyridazin-3-yl)-piperidin-1-yl]-{4-[6-(1-fluoromethyl-cyclopropylmethoxy)-pyridin-3-yl]-3-methoxy-phenyl}-methanone]",130
30,"COc1cc(C(=O)N2CCC(c3ccc(N)nn3)CC2)ncc1-c1ccc(OC2CCCC2)cc1 [Compound 23, [4-(6-Amino-pyridazin-3-yl)-piperidin-1-yl]-[5-(4-cyclopentyloxy-phenyl)-4-methoxy-pyridin-2-yl]-methanone]",69
